The subject of one series is HCT-116 (colon cancer). Kind of series: MTT cell viability assay, HCT-116. The settings on record: Homo sapiens, 72 h, mean ± SD. The series is classed as cell-based. On the technique in general: Formazan colour is commonly taken as a measure of viable cells.
Another series has as its system UACC-62. The series is described as follows: NCI-60 single dose screen, UACC-62. The series is classed as cell-based. As to conditions: Homo sapiens, Melanoma, single concentration 10^−5 M, read-out: IGP (inhibition growth percent) UACC-62. The method, boiled down:
(§1)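 NCI-60 one-dose testing (10 μM) per DTP procedure, cytotoxicity expressed as growth inhibition.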

In a further series the test system is SR. Kind of series: NCI-60 single dose screen, SR. The series is classed as cell-based. As to conditions: Homo sapiens, Leukemia, single concentration 10^−5 M, read-out: IGP (inhibition growth percent) SR. The method, boiled down: as §1
The next series deals with HaCaT. The series is described as follows: Cytotoxic effect against non-carcinogenic cell line HaCaT. The series is classed as cell-based. As to conditions: for IC50: Homo sapiens, HaCaT, non-carcinogenic cell line, mean ± SD; for activity against HCT-116 fold higher compared with HaCaT: selectivity HCT-116 vs HaCaT; for inhibition of growth of HaCaT cells fold weaker than HeLa cells: selectivity HeLa vs HaCaT. On the procedure:
For the compounds with the strongest cytotoxicity (12, 18, 22, and 24), an investigation of cytotoxic effect against non-carcinogenic cell line HaCaT was done. […] The activity against HCT-116 was 1.7-, 1.6-, 1.5-, and 1.4-fold higher when compared with HaCaT cell line, for compounds 12, 18, 22, and 24, respectively.
(§2) Cell viability was determined using the MTT (3-(4,5-dimethylthiazol-2-yl)-2,5-diphenyltetrazolium bromide) assay. Cells were seeded in 96-well plates at a density of 5 × 10^3 cells/well and treated for 72 h with the examined compounds in the concentration range 1–100 μM (1, 10, 25, 50, and 100 μM). Following treatment, MTT (0.5 mg/cm^3) was added to the medium and cells were further incubated for 2 h at 37 °C. Cells were lysed with DMSO and the absorbance of the formazan solution was measured at 550 nm with a plate reader (Victor, 1420 multilabel counter). […] The experiment was performed in triplicate. Values are expressed as the mean ± SD of at least three independent experiments.

The test system of another series is EKVX. The series is described as follows: NCI-60 single dose screen, EKVX. The series is classed as cell-based. The settings on record: Homo sapiens, NSCLC, single concentration 10^−5 M, read-out: IGP (inhibition growth percent) EKVX. The procedure, abridged:
as §1

A short description of series [1]: Metabolic stability in human liver microsomes with NADPH. The series is classed as in vitro ADME. As to conditions: pooled human liver microsomes, pH 7.4, human liver microsomes 0.5 mg/cm^3, NADPH 1 mM, 10 μM compound, 37 °C, read-out: in vitro metabolic half-life t1/2. For orientation: Liver microsomes are a subcellular fraction often used to study metabolism.
In another series the test system is MOLT-4. The series is described as follows: NCI-60 single dose screen, MOLT-4. The series is classed as cell-based. As to conditions: Homo sapiens, Leukemia, single concentration 10^−5 M, read-out: IGP (inhibition growth percent) MOLT-4. The procedure, abridged: as §1
In another series the test system is HCT-116, HeLa, MCF-7. Kind of series: MTT assays, mean over three tested cell lines. The series is classed as cell-based. The settings on record: Homo sapiens, mean of HCT-116, HeLa, read-out: mean IC50 against three tested cell lines. As to the method:
All of the newly synthesized compounds 9–24 were evaluated for their effects on cell viability in three human cancer cell lines: HCT-116 (colon cancer), HeLa (cervical cancer), and MCF-7 (breast cancer). Cisplatin was used as reference drug. […] Considering the activity of derivatives 9–12, 15, 17, 18, and 21–24, it can be noticed that phenyl group as R^3 bring an increase of cytotoxicity in comparison with methyl in place of R^3. However, this impact seems to be the most important for compounds with the bulky group in R^1 and generally, it is less for a set of derivatives with methyl group substituted in R^1 (9–12).
as §2

The test system of the next series is MCF-7 (breast cancer). Kind of series: MTT cell viability assay, MCF-7. The series is classed as cell-based, human. The settings on record: Homo sapiens, MCF7, 72 h, mean ± SD.

Here are results for three molecules from paper PMC6133092, “Synthesis of 2-alkylthio-N-(quinazolin-2-yl)benzenesulfonamide derivatives: anticancer activity, QSAR studies, and metabolic stability” (Monatshefte Fur Chemie, 2018).

For the molecule `O=C(Nc1ccccc1)c1cc(S(=O)(=O)Nc2nc(-c3ccccc3)c3ccccc3n2)c(SCc2ccccc2)cc1Cl` [Compound 18, 2-Benzylthio-4-chloro-5-phenylcarbamoyl-N-(4-phenylquinazolin-2-yl)benzenesulfonamide], the IC50 worked out at 42 ± 1 µM in the series on HCT-116 (colon cancer); 68 ± 2 µM in the series on HaCaT; 44.7 µM with HCT-116, HeLa, MCF-7; 46 ± 1 µM with MCF-7 (breast cancer). The inhibition at 10 µM with UACC-62 turned out to be 39%; in the series with SR, 28%; with EKVX, 35%; in the series on MOLT-4, 36%. Also, in the series on HaCaT, the “activity against HCT-116 fold higher compared with HaCaT” value (from here on “activity against HCT-116 fold higher”) is reported as 1.6 fold. Moreover, the “inhibition of growth of HaCaT cells fold weaker than HeLa cells” value with HaCaT amounted to 1.5 fold. In addition, the half-life at 10 μM in series [1] came to 11.2 min.

Take `O=C(Nc1ccc(Cl)cc1)c1cc(S(=O)(=O)Nc2nc(-c3ccccc3)c3ccccc3n2)c(SCc2ccccc2)cc1Cl` [Compound 22, 2-Benzylthio-4-chloro-5-(4-chlorophenylcarbamoyl)-N-(4-phenylquinazolin-2-yl)benzenesulfonamide]: the half-maximal inhibitory concentration (IC50) in the series with HCT-116 (colon cancer) amounted to 39 ± 1 µM; with HaCaT it was 59 ± 1 µM; in the series with HCT-116, HeLa, MCF-7 it was 44.7 µM; in the series on MCF-7 (breast cancer), 53 ± 1 µM. Also, the inhibition at 10 µM is 40% with UACC-62, 40% in the series with SR, 28% in the series on EKVX and 52% with MOLT-4. Moreover, the “activity against HCT-116 fold higher” value in the series with HaCaT is listed as 1.5 fold. In addition, the “inhibition of growth of HaCaT cells fold weaker than HeLa cells” value in the series on HaCaT is recorded as 1.4 fold. Also, the half-life at 10 μM in [1] was 67.2 min.

For the molecule `Cc1ccc(NC(=O)c2cc(S(=O)(=O)Nc3nc(-c4ccccc4)c4ccccc4n3)c(SCc3ccccc3)cc2Cl)cc1` [Compound 24, 2-Benzylthio-4-chloro-5-(4-methylphenylcarbamoyl)-N-(4-phenylquinazolin-2-yl)benzenesulfonamide], the IC50 stood at 41 ± 1 µM in the series with HCT-116 (colon cancer); 58 ± 1 µM in the series on HaCaT; 45.7 µM with HCT-116, HeLa, MCF-7; 52 ± 3 µM with MCF-7 (breast cancer). For the same molecule, the inhibition at 10 µM came to 28% with UACC-62, 23% in the series with SR, 45% in the series with EKVX and 21% with MOLT-4. Moreover, the “activity against HCT-116 fold higher” value with HaCaT is recorded as 1.4 fold. In addition, the “inhibition of growth of HaCaT cells fold weaker than HeLa cells” value in the series with HaCaT was 1.3 fold. The half-life at 10 μM in [1] stood at 42.3 min.

A word on the IC50: it is the midpoint of a concentration-inhibition curve. In general, inhibition refers to how much of the control response was suppressed.
